# Assay results: ChEMBL document CHEMBL5608234, “Heat Shock Protein 90 Interactome-Mediated Proteolysis Targeting Chimera (HIM-PROTAC) Degrading Glutathione Peroxidase 4 to Trigger Ferroptosis” (J Med Chem, 2024)
# Calls of active or inactive are those of the source. The rule behind the calls is not given here.
# What was measured:
# HT-1080 [1] = test: Induction of ferroptosis in human HT-1080 cells assessed as mitochondrial swelling at 1 uM incubated for 24 hrs by TEM analysis; format: functional, cell-based
# [2] = HIM-PROTAC activity at GPX4/HSP90/E3 ligase in human HT-1080 cells assessed as reduction in GPX4 level incubated for 24 hrs by Western blotting analysis; format: cell-based; settings: HT-1080, 24 h
# HT-1080 [3] = test: Induction of ferroptosis in human HT-1080 cells assessed as increase in HMOX1 protein level after 24 hrs by Western blotting analysis; format: functional, cell-based; settings: dose 0.1-3 µM
# HT-1080 [4] = test: HIM-PROTAC activity at GPX4/HSP90/E3 ligase in HSP90-knockdown human HT-1080 cells assessed as GPX4 degradation at 0.3 to 1 uM incubated for 24 hrs by Western blotting analysis; format: cell-based; settings: dose 0.3-1 µM
# HT-1080 [5] = test: HIM-PROTAC activity at GPX4/HSP90/E3 ligase in human HT-1080 cells assessed as reduction in GPX4 level at 1 uM preincubated with 2-chloro-N-(3-chloro-4-methoxyphenyl)-N-(2-oxo-2-(phenethylamino)-1-(thiophen-2-yl)ethyl)acetamide for 2 hrs followed by compound addition and measured after 24 hrs by Western blotting analysis; format: cell-based
# HT-1080 [6] = test: HIM-PROTAC activity at GPX4/HSP90/E3 ligase in human HT-1080 cells assessed as reduction in GPX4 level at 1 uM preincubated with MG132 for 2 hrs followed by compound addition and measured after 24 hrs by Western blotting analysis; format: cell-based
# [7] = Toxicity in BALB/c mouse xenografted with human HT-1080 cells assessed as reduction in body weight at 25 to 50 mg/kg, ip administered once daily; format: organism-based; settings: in vivo, dose 25-50 mg/kg
# HT-1080 [8] = test: HIM-PROTAC activity at GPX4/HSP90/E3 ligase in human HT-1080 cells assessed as reduction in GPX4 level at 1 uM incubated for 12 hrs by Western blotting analysis; format: cell-based
# HT-1080 [9] = test: Induction of ferroptosis in human HT-1080 cells assessed as increase in lipid peroxidation by measuring fluorescence intensity at 1 uM incubated for 12 hrs in presence of Fer-1 by C11-BODIPSY 581/591 staining based flow cytometry analysis; format: functional, cell-based
# [10] = AUC(0 to t) in ICR mouse at 25 mg/kg, ip measured upto 24 hrs by LC-MS/MS analysis; format: ADME, organism-based; settings: in vivo
# HT-1080 [11] = test: Cytotoxicity against human HT-1080 cells incubated for 48 hrs in presence of Fer-1 by CCK-8 assay; format: functional, cell-based; settings: HT-1080, 48 h
# Mus musculus [12] = test: Upregulation of 4-HNE protein level in BALB/c mouse tumor xenografted with human HT-1080 cells at 50 to 100 mg/kg, ip measured upto 36 hrs; format: functional, organism-based; settings: dose 50-100 mg/kg
# HT-1080 [13] = test: HIM-PROTAC activity at GPX4/HSP90/E3 ligase in human HT-1080 cells assessed as reduction in GPX4 level at 0.1 to 3 uM incubated for 24 hrs by Western blotting analysis; format: cell-based; settings: dose 0.1-3 µM
# Mus musculus [14] = test: Downregulation of GPX4 level in ip dosed BALB/c mouse xenografted with human HT-1080 cells administered once daily by immunohistochemistry analysis; format: functional, organism-based; settings: dose 25-50 mg/kg
# HT-1080 [15] = test: Induction of ferroptosis in human HT-1080 cells assessed as increase in Fe2+ level at 1 uM incubated for 24 hrs by FerroOrange staining based confocal laser scanning microscopic analysis; format: functional, cell-based
# HT-1080 [16] = test: Induction of ferroptosis in human HT-1080 cells assessed as increase in lipid peroxidation by measuring fluorescence intensity incubated for 12 hrs by C11-BODIPSY 581/591 staining based flow cytometry analysis; format: functional, cell-based; settings: dose 0.1-3 µM
# MDA-MB-231 = test: HIM-PROTAC activity at GPX4/HSP90/E3 ligase in human MDA-MB-231 cells assessed as reduction in GPX4 level at 0.1 to 3 uM incubated for 24 hrs by Western blotting analysis; format: cell-based; settings: dose 0.1-3 µM
# HT-1080 [17] = test: Downregulation of GPX4 protein level in human HT-1080 cells at 1 uM incubated for 24 hrs by proteomics analysis; format: functional, cell-based
# HT-1080 [18] = test: Induction of ferroptosis in human HT-1080 cells assessed as ruptured mitochondria at 1 uM incubated for 24 hrs by TEM analysis; format: functional, cell-based
# [19] = Toxicity in BALB/c mouse xenografted with human HT-1080 cells assessed as change in kidney morphology at 25 to 50 mg/kg, ip administered once daily by H and E staining based assay; format: organism-based; settings: in vivo, dose 25-50 mg/kg
# [20] = Toxicity in BALB/c mouse xenografted with human HT-1080 cells assessed as change in lung morphology at 25 to 50 mg/kg, ip administered once daily by H and E staining based assay; format: organism-based; settings: in vivo, dose 25-50 mg/kg
# [21] = Toxicity in BALB/c mouse xenografted with human HT-1080 cells assessed as change in liver morphology at 25 to 50 mg/kg, ip administered once daily by H and E staining based assay; format: organism-based; settings: in vivo, dose 25-50 mg/kg
# 4T1 = test: HIM-PROTAC activity at GPX4/HSP90/E3 ligase in […] cells assessed as reduction in GPX4 level at 0.1 to 3 uM incubated for 24 hrs by Western blotting analysis; format: cell-based; settings: dose 0.1-3 µM
# HT-1080 [22] = test: Antitumor activity against human HT-1080 cells xenografted in ip dosed BALB/c mouse assessed as tumor growth suppression administered once daily; format: functional, organism-based; settings: dose 25-50 mg/kg
# [23] = MRT(infinity) in ICR mouse at 25 mg/kg, ip measured upto 24 hrs by LC-MS/MS analysis; format: ADME, organism-based; settings: in vivo
# HT-1080 [24] = test: Induction of ferroptosis in human HT-1080 cells assessed as fold increase in cytotoxic IC50 incubated for 48 hrs in presence of Fer-1 by CCK-8 assay; format: functional
# HT-1080 [25] = test: HIM-PROTAC activity at GPX4/HSP90/E3 ligase in human HT-1080 cells assessed as reduction in GPX4 level at 1 uM incubated for 24 hrs by Western blotting analysis; format: cell-based; design: scale not given: the % may be the effect or the level left
# Mus musculus [26] = test: Effect on HSP90 level in BALB/c mouse xenografted with human HT-1080 cells at 25 to 50 mg/kg, ip administered once daily by immunohistochemistry analysis; format: functional, organism-based; settings: dose 25-50 mg/kg
# Mus musculus [27] = test: Downregulation of GPX4 protein level in BALB/c mouse tumor xenografted with human HT-1080 cells at 50 to 100 mg/kg, ip measured upto 36 hrs; format: functional, organism-based; settings: dose 50-100 mg/kg
# HT-1080 [28] = test: Induction of HSP90/GPX4 protein protein interaction in human HT-1080 cells assessed as ternary complex formation at 5 uM incubated for 12 hrs by co-immunoprecipitation method; format: cell-based; settings: filed as activator
# HT-1080 [29] = test: Induction of ferroptosis in human HT-1080 cells assessed as reduction in mitochondrial crests at 1 uM incubated for 24 hrs by TEM analysis; format: functional, cell-based
# B16-F10 = test: HIM-PROTAC activity at GPX4/HSP90/E3 ligase in mouse B16-F10 cells assessed as reduction in GPX4 level at 0.1 to 3 uM incubated for 24 hrs by Western blotting analysis; format: cell-based; settings: dose 0.1-3 µM
# HT-1080 [30] = test: Induction of ferroptosis in human HT-1080 cells assessed as increase in ROS level at 1 uM incubated for 24 hrs by DCFH-DA staining based confocal laser scanning microscopic analysis; format: functional, cell-based
Structure (SMILES),Activity (HT-1080 [1]),DC50 [2] [nM],Activity (HT-1080 [3]),Activity (HT-1080 [4]),Activity (HT-1080 [5]),Activity (HT-1080 [6]),Activity [7],Activity (HT-1080 [8]),Activity (HT-1080 [9]),AUC(0-t) at 24 h [10] [ng·h/mL],IC50 (HT-1080 [11]) [nM],Activity (Mus musculus [12]),Activity (HT-1080 [13]),Activity (Mus musculus [14]),Activity (HT-1080 [15]),Activity (HT-1080 [16]),Activity (MDA-MB-231),Activity (HT-1080 [17]),Activity (HT-1080 [18]),Activity [19],further results
COc1c(C)cnc(Cn2cnc3c(NCCC4CCN(C(=O)Cn5cc(COc6ccc(N(C(=O)CCl)C(C(=O)NCCc7ccccc7)c7cccs7)cc6Cl)nn5)CC4)nc(N)nc32)c1C (stereo unspecified),Active,80,Dose-Dependent Effect,inactive,inactive,inactive,Toxic,Active,inactive,334,35500,Active,Active,Dose-Dependent Effect,Active,Dose-Dependent Effect,inactive,Active,Active,Non-Toxic,Activity [20]: Non-Toxic; Activity [21]: Non-Toxic; Activity (4T1): Active; Activity (HT-1080 [22]): Dose-Dependent Effect; MRT inf [23]: 6.2 h; fold change (FC) (HT-1080 [24]): 45; Activity (HT-1080 [25]): 100%; Activity (Mus musculus [26]): inactive; Activity (Mus musculus [27]): Active; Activity (HT-1080 [28]): Active; Activity (HT-1080 [29]): Active; Activity (B16-F10): Active; Activity (HT-1080 [30]): Active
COc1c(C)cnc(Cn2cnc3c(NCCOCCOCCOCCn4cc(COc5ccc(N(C(=O)CCl)C(C(=O)NCCc6ccccc6)c6cccs6)cc5Cl)nn4)nc(N)nc32)c1C (stereo unspecified),Active,180,Dose-Dependent Effect,inactive,inactive,inactive,Toxic,Active,inactive,726,4400,Active,Active,Dose-Dependent Effect,Active,Dose-Dependent Effect,inactive,Active,Active,Non-Toxic,Activity [20]: Non-Toxic; Activity [21]: Non-Toxic; Activity (4T1): Active; Activity (HT-1080 [22]): Dose-Dependent Effect; MRT inf [23]: 8.2 h; fold change (FC) (HT-1080 [24]): 2; Activity (HT-1080 [25]): 100%; Activity (Mus musculus [26]): inactive; Activity (Mus musculus [27]): Active; Activity (HT-1080 [28]): Active; Activity (HT-1080 [29]): Active; Activity (B16-F10): Active; Activity (HT-1080 [30]): Active
